{"source": "patent US10039839B2", "about": "“Compounds that participate in cooperative binding and uses thereof” (Warp Drive Bio, Inc., priority 2015, dated 2018)", "biological_target": "T1, Cyclophilin A (Homo sapiens, UniProt P62937)", "T1 construct": "made in house", "T1 sequence (P62937 whole entry, species assumed)": "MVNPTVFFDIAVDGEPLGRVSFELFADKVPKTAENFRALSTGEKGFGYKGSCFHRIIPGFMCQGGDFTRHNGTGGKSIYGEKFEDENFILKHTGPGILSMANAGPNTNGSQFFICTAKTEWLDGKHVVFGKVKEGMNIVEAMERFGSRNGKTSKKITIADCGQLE", "test": "biochemical", "type": "binding", "conditions": "for IC50: read-out: IC50 value of CsA binding to Cyclophilin A", "procedure": "This protocol utilizes Perkin Elmers AlphaLISA technology platform to detect cyclosporine analogues by measuring the inhibition of binding of biotinylated Cyclosporin A to FLAG tagged Cyclophilin A.\nAdd 20 uL of 6 nM Biotinylated CsA working stock to each well of the 96-well plate. Add 1 uL of test compound (100% DMSO) to each well of the plate using the Janus MTD head and P20 tips (except control wells). Add 1 uL of DMSO to negative control wells and 1 uL of 500 uM Cyclosporin A solution to positive control wells. In the dark, add 20 uL of combined Donor/Acceptor beads to each well. Incubate in the dark for 30 minutes at room temperature. […] Incubate in the dark for 60 minutes at room temperature.", "note": "Square brackets hold non-standard residues; d marks the D form. Peptide text beside a SMILES is read from it. MeBmt = C/C=C/C[C@@H](C)[C@@H](O)[C@H](NC)C(=O)O; NMeI = CC[C@H](C)[C@H](NC)C(=O)O; NMeT = CN[C@H](C(=O)O)[C@@H](C)O; NMeL = CN[C@@H](CC(C)C)C(=O)O; Tle = CC(C)(C)[C@H](N)C(=O)O; NMeV = CN[C@H](C(=O)O)C(C)C; NMeA = CN[C@@H](C)C(=O)O; dNMeA = CN[C@H](C)C(=O)O; Abu = CC[C@H](N)C(=O)O; Sar = CNCC(=O)O"}
{"smiles": "C/C=C/C[C@@H](C)[C@@H](O)[C@H]1C(=O)N[C@@H](CC)C(=O)N(C)CC(=O)N(C)[C@H](C)C(=O)N[C@@H](C(C)C)C(=O)N(C)[C@@H](CC(C)C)C(=O)N[C@@H](CC(C)C)C(=O)N[C@H](C)C(=O)N(C)[C@@H](CC(C)C)C(=O)N(C)[C@@H](CC(C)C)C(=O)N(C)[C@@H](C(C)C)C(=O)N1C", "note": "[C47] (cyclo([MeBmt][Abu][Sar][dNMeA]V[NMeL]L[dA][NMeL][NMeL][NMeV]))", "values": [{"measurement": "% inhibition of CsA binding to Cyclophilin A", "value": 95.71, "unit": "%"}, {"measurement": "IC50", "value": "< 2000", "unit": "nM"}]}
{"smiles": "C/C=C/C[C@@H](C)[C@@H](O)[C@H]1C(=O)N[C@@H](CC)C(=O)N(C)CC(=O)N(C)[C@@H](CC(C)C)C(=O)N[C@@H](CC(C)C)C(=O)N(C)[C@@H](C)C(=O)N[C@@H](C)C(=O)N[C@H](C)C(=O)N(C)[C@@H](CC(C)C)C(=O)N(C)[C@@H](CC(C)C)C(=O)N(C)[C@@H](C(C)C)C(=O)N1C", "note": "[C14] (cyclo([MeBmt][Abu][Sar][NMeL]L[NMeA]A[dA][NMeL][NMeL][NMeV]))", "values": [{"measurement": "% inhibition of CsA binding to Cyclophilin A", "value": 90.64, "unit": "%"}]}
{"smiles": "C/C=C/C[C@@H](C)[C@@H](O)[C@H]1C(=O)N[C@@H](CC)C(=O)N(C)CC(=O)N(C)[C@H](C)C(=O)N[C@@H](CC(C)C)C(=O)N(C)[C@@H](C)C(=O)N[C@@H](C)C(=O)N[C@H](C)C(=O)N(C)[C@@H](CC(C)C)C(=O)N(C)[C@@H](CC(C)C)C(=O)N(C)[C@@H](C(C)C)C(=O)N1C", "note": "[C11] (cyclo([MeBmt][Abu][Sar][dNMeA]L[NMeA]A[dA][NMeL][NMeL][NMeV]))", "values": [{"measurement": "% inhibition of CsA binding to Cyclophilin A", "value": 93.73, "unit": "%"}, {"measurement": "IC50", "value": "< 2000", "unit": "nM"}]}
{"smiles": "C/C=C/C[C@@H](C)[C@@H](O)[C@H]1C(=O)N[C@@H](CC)C(=O)N(C)CC(=O)N(C)[C@@H]([C@@H](C)O)C(=O)N[C@@H](C(C)(C)C)C(=O)N(C)[C@@H](C)C(=O)N[C@@H](CC(C)C)C(=O)N[C@H](C)C(=O)N(C)[C@@H](CC(C)C)C(=O)N(C)[C@@H](CC(C)C)C(=O)N(C)[C@@H](C(C)C)C(=O)N1C", "note": "[C75] (cyclo([MeBmt][Abu][Sar][NMeT][Tle][NMeA]L[dA][NMeL][NMeL][NMeV]))", "values": [{"measurement": "% inhibition of CsA binding to Cyclophilin A", "value": 96.12, "unit": "%"}]}
{"smiles": "C/C=C/C[C@@H](C)[C@@H](O)[C@H]1C(=O)N[C@@H](CC)C(=O)N(C)CC(=O)N(C)[C@@H]([C@@H](C)CC)C(=O)N[C@@H](C(C)C)C(=O)N(C)CC(=O)N[C@@H](C)C(=O)N[C@H](C)C(=O)N(C)[C@@H](CC(C)C)C(=O)N(C)[C@@H](CC(C)C)C(=O)N(C)[C@@H](C(C)C)C(=O)N1C", "note": "[C25] (cyclo([MeBmt][Abu][Sar][NMeI]V[Sar]A[dA][NMeL][NMeL][NMeV]))", "values": [{"measurement": "% inhibition of CsA binding to Cyclophilin A", "value": 99.63, "unit": "%"}]}
{"smiles": "C/C=C/C[C@@H](C)[C@@H](O)[C@H]1C(=O)N[C@@H](CC)C(=O)N(C)CC(=O)N(C)CC(=O)N[C@@H](C(C)C)C(=O)N(C)CC(=O)N[C@@H](C)C(=O)N[C@H](C)C(=O)N(C)[C@@H](CC(C)C)C(=O)N(C)[C@@H](CC(C)C)C(=O)N(C)[C@@H](C(C)C)C(=O)N1C", "note": "[C29] (cyclo([MeBmt][Abu][Sar][Sar]V[Sar]A[dA][NMeL][NMeL][NMeV]))", "values": [{"measurement": "% inhibition of CsA binding to Cyclophilin A", "value": 98.77, "unit": "%"}]}
{"smiles": "C/C=C/C[C@@H](C)[C@@H](O)[C@H]1C(=O)N[C@@H](CC)C(=O)N(C)CC(=O)N(C)[C@@H](C)C(=O)N[C@@H](C)C(=O)N(C)CC(=O)N[C@@H](C)C(=O)N[C@H](C)C(=O)N(C)[C@@H](CC(C)C)C(=O)N(C)[C@@H](CC(C)C)C(=O)N(C)[C@@H](C(C)C)C(=O)N1C", "note": "[C18] (cyclo([MeBmt][Abu][Sar][NMeA]A[Sar]A[dA][NMeL][NMeL][NMeV]))", "values": [{"measurement": "% inhibition of CsA binding to Cyclophilin A", "value": 97.88, "unit": "%"}]}
{"smiles": "C/C=C/C[C@@H](C)[C@@H](O)[C@H]1C(=O)N[C@@H](CC)C(=O)N(C)CC(=O)N(C)[C@@H](C(C)C)C(=O)N[C@@H](C(C)(C)C)C(=O)N(C)[C@@H](C)C(=O)N[C@@H](CC(C)C)C(=O)N[C@H](C)C(=O)N(C)[C@@H](CC(C)C)C(=O)N(C)[C@@H](CC(C)C)C(=O)N(C)[C@@H](C(C)C)C(=O)N1C", "note": "[C77] (cyclo([MeBmt][Abu][Sar][NMeV][Tle][NMeA]L[dA][NMeL][NMeL][NMeV]))", "values": [{"measurement": "% inhibition of CsA binding to Cyclophilin A", "value": 99.56, "unit": "%"}]}
